Laboratory results: the OligoGym collection
These antisense oligonucleotides have a phosphorothioate backbone; sugars and methylation of C are not fully specified.

Target: SRA1
Conditions: ASO
Note: test concentration or dose not given here.

Going from AAAACAGACTCCTCTTTT to AAACTTGTGGGCTCCACG, the remaining target (mRNA or protein) (fraction of control) falls from 0.54 to 0.18.

Going from AACCGAGGATTATGAAGC to AACTGCGGCGGGTCGTTC, the remaining target (mRNA or protein) (fraction of control) rises from 0.57 to ≥ 1.

First: AACTTTCCTCCAGCCCAC
Second: AAGGAGGTGGAGGCCCCA
The remaining target (mRNA or protein) (fraction of control) of the first is lower: 0.21 for the first, 0.72 for the second.

Compared with ACACATGAACTCCCTCTG, ACATACCTGCTTCCTTGT is higher in remaining target (mRNA or protein) (fraction of control): 0.77 for the first, ≥ 1 for the second.

First: ACATGGTCAACCATGAGG
Second: ACCACTCCCCACAGGTGG
The remaining target (mRNA or protein) (fraction of control) of the first is lower: 0.54 for the first, ≥ 1 for the second.

ACCATCCACTGACTGACC and ACCCTCTTGGTAAGCAGC cannot be ordered by remaining target (mRNA or protein) (fraction of control): ≥ 1 for the first, ≥ 1 for the second.

Compared with ACCTGCTTCCTTGTGTGG, ACGCCAGAGGCAGGACCA is higher in remaining target (mRNA or protein) (fraction of control): 0.32 for the first, 0.55 for the second.

Compared with ACTGGGAAACTTGTGGGC, AGAGGCAGGACCACTCCC is lower in remaining target (mRNA or protein) (fraction of control): ≥ 1 for the first, 0.92 for the second.

Compared with AGCGGTGGATGTCATCTG, AGGCCCAGGAGAAGTCTC is lower in remaining target (mRNA or protein) (fraction of control): 0.65 for the first, 0.61 for the second.

Compared with AGTCGAGCCTCAGACTCG, ATCCTCCATCAGTCGAGC is higher in remaining target (mRNA or protein) (fraction of control): 0.72 for the first, ≥ 1 for the second.

Going from ATCTGCTGCGTCCCACCG to ATGAGGGAGCGGTGGATG, the remaining target (mRNA or protein) (fraction of control) rises from 0.9 to ≥ 1.

Going from ATGCATGTTATGAGTAAC to ATTTGAGGAGATGGTGTC, the remaining target (mRNA or protein) (fraction of control) falls from ≥ 1 to 0.94.

Compared with CAACTTTCCTCCAGCCCA, CAATGCCTGTTCCAAAGG is higher in remaining target (mRNA or protein) (fraction of control): 0.41 for the first, 0.91 for the second.

Going from CAGAGGTTTGCAGATACA to CAGCACATCCTCCATCAG, the remaining target (mRNA or protein) (fraction of control) rises from 0.35 to 0.61.

First: CAGGGAGCAGGGCAGTCG
Second: CAGTGCCAGGCGTCGGCT
The remaining target (mRNA or protein) (fraction of control) of the first is lower: 0.35 for the first, 0.66 for the second.

First: CATCACATACCTGCTTCC
Second: CATCCAAACACAGCTGCT
The remaining target (mRNA or protein) (fraction of control) of the first is higher: 0.68 for the first, 0.39 for the second.

First: CATGGTCAACCATGAGGG
Second: CCACCGGTGGCTTGAAAG
The remaining target (mRNA or protein) (fraction of control) of the first is higher: ≥ 1 for the first, 0.85 for the second.

First: CCAGCAGATCCCTTCCTG
Second: CCAGCCGCGTTCCTTGTT
The remaining target (mRNA or protein) (fraction of control) of the first is higher: ≥ 1 for the first, 0.69 for the second.

Going from CCAGTAGAGCCATTCTCT to CCATTCTCTTCTTTACAG, the remaining target (mRNA or protein) (fraction of control) falls from 0.83 to 0.6.

With CCCCACTCAATGTGGTTC the remaining target (mRNA or protein) (fraction of control) was 0.31.

Target: not given
Conditions: ASO

GGGTCCGTTCCCTCAACA and GGTAGGTCGTAGAAGATG cannot be ordered by remaining target (mRNA or protein) (fraction of control): ≥ 1 for the first, ≥ 1 for the second.

First: GGTGGTGGAGTGCATAAGAG
Second: GTAAGTCCAGGAGATAGC
The remaining target (mRNA or protein) (fraction of control) of the first is higher: 0.98 for the first, 0.86 for the second.

First: GTAGATGAGGGCGATCAC
Second: GTCCAGCCACTGCAGTGGCC
The remaining target (mRNA or protein) (fraction of control) of the first is higher: ≥ 1 for the first, 0.82 for the second.

GTCCAGGTAGCGGGCGAG and GTCCCAGAACCCTGCCCA cannot be ordered by remaining target (mRNA or protein) (fraction of control): ≥ 1 for the first, ≥ 1 for the second.

Compared with GTCCCCCGACTCCCTTGC, GTCCCTGCACCCCTAGTC is higher in remaining target (mRNA or protein) (fraction of control): 0.27 for the first, ≥ 1 for the second.

Compared with GTCTTCAGTGTTTTCATT, GTGGAGTGCATAAGAGGCCA is lower in remaining target (mRNA or protein) (fraction of control): ≥ 1 for the first, 0.84 for the second.

First: GTGGTTGCGTGCCGATTCAC
Second: GTGTAGTGGCTGAAAAGG
The remaining target (mRNA or protein) (fraction of control) of the first is lower: 0.5 for the first, ≥ 1 for the second.

Compared with GTTCATTCCATTCAGTTG, GTTCCAGGATAGTCCCAA is lower in remaining target (mRNA or protein) (fraction of control): 0.87 for the first, 0.34 for the second.

Compared with GTTGATCTCGTCCAGGTA, TAAGAGGCCACAGCAGGCTC is higher in remaining target (mRNA or protein) (fraction of control): 0.28 for the first, 0.42 for the second.

TAGATGCACTTGGAGCGA and TATTATCGAGTGACTGGT cannot be ordered by remaining target (mRNA or protein) (fraction of control): ≥ 1 for the first, ≥ 1 for the second.

Compared with TCAACTTCTTTTGCCGAA, TCACAGCAGGTTGATCTC is higher in remaining target (mRNA or protein) (fraction of control): 0.62 for the first, ≥ 1 for the second.

First: TCAGCATCCTGCTTAGGG
Second: TCATGGCCCGCATGGACA
The remaining target (mRNA or protein) (fraction of control) of the first is higher: ≥ 1 for the first, 0.7 for the second.

TCCATTTCTTACGCTCTG and TCCCAGGGTGTGCGTCAC cannot be ordered by remaining target (mRNA or protein) (fraction of control): ≥ 1 for the first, ≥ 1 for the second.

Going from TCCTTGCCTGAAACACCC to TCGGCGGTGGCAAGGCTT, the remaining target (mRNA or protein) (fraction of control) falls from ≥ 1 to 0.97.

First: TCTCCTCCAGGCACTGGT
Second: TCTCCTTCATGCGGTTCT
The remaining target (mRNA or protein) (fraction of control) of the first is lower: 0.18 for the first, 0.61 for the second.

First: TGAAGATGAATCTCAATCCA
Second: TGATTTCTTCACCTTTTC
The remaining target (mRNA or protein) (fraction of control) of the first is lower: 0.88 for the first, ≥ 1 for the second.

Going from TGCACCAGTGGCTCGGCT to TGCATAAGAGGCCACAGCAG, the remaining target (mRNA or protein) (fraction of control) falls from ≥ 1 to 0.44.

First: TGCGCTCCTCCTCCGAGT
Second: TGCTGTCACTCACGCACTCG
The remaining target (mRNA or protein) (fraction of control) of the first is higher: ≥ 1 for the first, 0.57 for the second.

Going from TGCTTGTGGGCCGCGATT to TGGAGAGATAGACCAGGA, the remaining target (mRNA or protein) (fraction of control) rises from 0.24 to 0.67.

Compared with TGGGGGTGGTGGAGTGCATA, TGGTGGAGTGCATAAGAGGC is lower in remaining target (mRNA or protein) (fraction of control): 0.53 for the first, 0.47 for the second.

Compared with TGTCCTGGTGAGAGGCAG, TGTCTGGGTCCACCGTGC is lower in remaining target (mRNA or protein) (fraction of control): 0.73 for the first, 0.45 for the second.

Compared with TGTGGGCCGAGGCTGGAG, TGTTAAGACACTGAAGAAAT is higher in remaining target (mRNA or protein) (fraction of control): 0.85 for the first, ≥ 1 for the second.

Compared with TTACGCTCTGACTTCTGG, TTATAAGCCAAAGTGCGT is higher in remaining target (mRNA or protein) (fraction of control): 0.81 for the first, ≥ 1 for the second.

First: TTATTCATACCGTTGTTG
Second: TTCAAGTCTTCTTCCAAT
The remaining target (mRNA or protein) (fraction of control) of the first is higher: 0.96 for the first, 0.85 for the second.

First: TTCAATGGCTTCCACGAG
Second: TTCGCCGCACCGACTCGC
The remaining target (mRNA or protein) (fraction of control) of the first is higher: 0.94 for the first, 0.9 for the second.

TTCTCATCCTCCGTCAGG and TTCTCCTCCAGGCACTGG cannot be ordered by remaining target (mRNA or protein) (fraction of control): ≥ 1 for the first, ≥ 1 for the second.

Compared with TTCTCCTGTCCACTAGAG, TTCTGGCACTTTCTATGA is lower in remaining target (mRNA or protein) (fraction of control): 0.98 for the first, 0.72 for the second.

First: TTCTGTGTGTCTGTGGCA
Second: TTGCCCAACCACTCGTTC
The remaining target (mRNA or protein) (fraction of control) of the first is lower: 0.19 for the first, 0.45 for the second.

First: TTGCTCTCGGGCCTGCTG
Second: TTGGTATCGATAGCACTACA
The remaining target (mRNA or protein) (fraction of control) of the first is lower: 0.21 for the first, 0.96 for the second.

TTTCTATCGTTGAGTTTCTG and TTTCTCATTGCCTTCACG cannot be ordered by remaining target (mRNA or protein) (fraction of control): ≥ 1 for the first, ≥ 1 for the second.

TTTCTGCACGGAGAAGCA gave a remaining target (mRNA or protein) (fraction of control) of 0.26.
